Data set [1] concerns human blood-plaques. Kind of data set: Blood-plaque aggregation inhibition in B.P.R.P. (D.P.A., adrenaline, collagene). The note with it: for a(X): blood-plaque aggregation inhibiting activity, D.P.A. / a(X): blood-plaque aggregation inhibiting activity, Adrenaline: compound 2.5 × 10^-5 g/ml; for ratio of activities a(X)/a(R), D.P.A. / ratio of activities a(X)/a(R), Adrenaline: X 2.5 × 10^-5 g/ml vs Dipyridamole 5 × 10^-4 g/ml; for ratio of activities a(X)/a(R), D.P.A.: head is drawing 13; for ratio of activities a(X)/a(R), Adrenaline: head is drawing 15; for a(X): blood-plaque aggregation inhibiting activity, Collagene: compound 2 × 10^-5 g/ml; for ratio of activities a(X)/a(R), Collagene: X 2 × 10^-5 g/ml vs Dipyridamole 2 × 10^-4 g/ml, head is drawing 16.

Data set [2] has as its system isolated heart of a guinea-pig. Put plainly: Vasodilatatory activity, coronary flow of isolated perfused heart. The note with it: for activation at 10 µg/mL: Cavia porcellus, compound 1 × 10^-5 g/ml, Locke solution, 37° C, at climax of activity, read-out: P (X): percentage of coronary flow increase; for ratio P (X)/P (R): X and Dipyridamole both 1 × 10^-5 g/ml, head is drawing 21. The protocol: The percentage of flow increase (P) is calculated at the climax of the activity of X or R.

Data set [3] in a line: Acute oral toxicity (LD 50), Miller and Tainter. Particulars: mouse, in vivo; for LD50 at 168 h: mice deprived of food 18 hours, oral (esophageal probe), mortality followed seven days, read-out: LD 50 (50% lethal dose). The protocol: Acute toxicity of compounds of formula (I) was measured orally (esophageal probe) on mice deprived of food 18 hours before the beginning of the test. The products were suspended in a solution of dilute carboxymethyl cellulose. Calculation of the 50% lethal dose was carried out according to the method of Miller and Tainter (Miller L. C., Tainter M. L., proc. Soc. Exptl. Biol. Med. 1944, 57, 261-264).
The mortality rate was checked for seven days following the treatment.

Data set [4] concerns phenylparaquinone (P.P.Q.) painful syndrome in mouse. Put plainly: Analgesic and anti-inflammatory activity (P.P.Q. painful syndrome). The note with it: for a (X): percentage activity, P.P.Q.: 50 mg/kg digestively; for ratio of activity of X in relation to R, P.P.Q.: X 50 mg/kg vs Glafenine 25 mg/kg, 0.5 = half the activity of reference, head is drawing 19. The data set is classed as in vivo. The protocol:
The intraperitoneal injection of phenylparaquinone (P.P.Q.) to a mouse causes the appearance of a painful syndrome appearing within 5 minutes of the injection and disappearing after about 30 minutes (Siegmund E. A., Cadmus A., Lu G., J. Pharmacol. Exp. Therap. 1957, 119, 453).
This painful syndrome manifests itself in the animal by a series of characteristic crises more or less close together and fleeting, during which can be noted a twisting or stretching of the body, a hollowing of the sides and a stretching of the hind legs.
It is then possible to note the number of crises in a given interval of time.
The preventive administration of analgesic or anti-inflammatory substances prevents the appearance of the crises and reduces the frequence thereof.
The reference substance used in the tests (R) is the ester of N-(7-chloro-4-quinolyl) anthrilic acid and 2,3-dihydroxy n. propanol (known under the trademark "Glafenine").
It is administered orally as a dose of 25 mg/kg.
The compounds of formula I (X) were administered digestively as a dose of 50 mg/kg.
The interval of time (t) chosen for calculating the analgesic activity was between 10 and 15 minutes after injection of P.P.Q. which is the period of maximum frequency of the crises. This activity was expressed in the following manner;
n: the number of crises observed in controle mice;
n': the number of crises observed in mice previously treated with the reference substance (R);
n": the number of crises observed in mice having received substance (X)
The percentage activity of R is equal to: [formula] The percentage activity of X is equal to: [formula] The activity of X in relation to R is estimated by the ratio: [formula]

The subject of data set [5] is rat's isolated duodenum. Kind of data set: Spasmolytic activity on isolated duodenum, barium chloride contraction (Magnus). Particulars: for relative activity, ratio of ED 50 (papaverine hydrochloride = R): 2 = twice the activity of papaverine hydrochloride, head is drawing 18; for IC50: Rattus norvegicus. The protocol: Spasmolytic activity was studied on a rat's isolated duodenum maintained in a survival medium of an aerated Tyrode solution heated to 38° C, according to the technique of Magnus (Magnus R. -- Archiv. ges. Physiol., 1905, 180, 1-71).
The contracting agent was barium chloride, the reference antagonist agent being papaverine hydrochloride (R). The average activity of compounds of formula I (X) compared to that of the reference agent were expressed by calculating the ratio of 50 efficient doses (ED 50) determined graphically on logarithmic paper: [formula]
For example: a substance having a relative activity expressed by the figure 2 has an activity equal to twice that of papaverine hydrochloride.

Setting [6] is: crises 10 to 15 minutes after P.P.Q.
The mark [7] stands for this setting: barium chloride contraction, Tyrode solution, 38° C, read-out: ED 50 (X), spasmolytic activity.

Converted amounts (≈) assume the structure as drawn. “And” between values parts separate entries of the source, which are not always exact repeats. Equal values may be shown once. Where a name gives a salt, the structure may show the parent alone. Read-outs that look alike come from different tables or passages of the source.

For the compound `O=C(CCN1CCCCCC1)c1cc2ccccc2s1` [Compound 1, 1-(benzothien-2'yl) 3-N-perhydroazepino propanone oxalate], the “a(X): blood-plaque aggregation inhibiting activity, D.P.A.” value in data set [1] (D.P.A.-induced) was 54%. In addition, in data set [1], the “ratio of activities a(X)/a(R), D.P.A.” value is listed as 7.5 × 10^-1; the “ratio of activities a(X)/a(R), Adrenaline” value (shortened to “ratio … Adrenaline”) is 6 × 10^-2; the “ratio of activities a(X)/a(R), Collagene” value came to 2.5. In addition, the “a(X): blood-plaque aggregation inhibiting activity, Adrenaline” value in data set [1] (adrenaline-induced) is listed as 6%. Also, the “a(X): blood-plaque aggregation inhibiting activity, Collagene” value in data set [1] (collagene-induced) was determined as 91%. For the same compound, in data set [2], the activation at 10 µg/mL stood at 66% and the “ratio P (X)/P (R)” value was found to be 0.87. For the same compound, the LD50 at 168 h in data set [3] came to 1200 mg/kg.
`CN(C)CCC(=O)c1cc2ccccc2s1` [Compound 2]: the “a (X): percentage activity, P.P.Q.” value in data set [4] (setting [6]) came out at 36%. Also, the “ratio of activity of X in relation to R, P.P.Q.” value (from here on “ratio of activity of X … P.P.Q.”) in data set [4] turned out to be 0.51. Moreover, in data set [1], the “ratio of activities a(X)/a(R), D.P.A.” value amounted to 1.4; the “ratio … Adrenaline” value is given as 1; the “ratio of activities a(X)/a(R), Collagene” value is recorded as 1.75. Moreover, in data set [1] (adrenaline-induced), the “a(X): blood-plaque aggregation inhibiting activity, Adrenaline” value was found to be 98%. Also, the “a(X): blood-plaque aggregation inhibiting activity, Collagene” value in data set [1] (collagene-induced) is recorded as 74%. For the same compound, in data set [2], the activation at 10 µg/mL worked out at 64% and the “ratio P (X)/P (R)” value turned out to be 0.4. Moreover, the LD50 at 168 h in data set [3] was 960 mg/kg. The “relative activity, ratio of ED 50 (papaverine hydrochloride = R)” value in data set [5] stood at 2.64. Further, the IC50 in data set [5] (setting [7]) was 1.6 µg/mL (≈ 6.86 µM).
As for `C=CCN(CC=C)CCC(=O)c1cc2ccccc2s1` [Compound 3], in data set [4] (setting [6]), the “a (X): percentage activity, P.P.Q.” value amounted to 58%. In addition, the “ratio of activity of X … P.P.Q.” value in data set [4] turned out to be 0.75. The “a(X): blood-plaque aggregation inhibiting activity, Adrenaline” value in data set [1] (adrenaline-induced) stood at 64%. In data set [1], the “ratio … Adrenaline” value is given as 7 × 10^-1 and the “ratio of activities a(X)/a(R), Collagene” value is given as 2.5 × 10^-1. The “a(X): blood-plaque aggregation inhibiting activity, Collagene” value in data set [1] (collagene-induced) was 17%. The LD50 at 168 h in data set [3] amounted to 1000 mg/kg.
Consider `O=C(CCN1CCCCC1)c1cc2ccccc2s1` [Compound 4], for which the “a (X): percentage activity, P.P.Q.” value in data set [4] (setting [6]) was 25%. The “ratio of activity of X … P.P.Q.” value in data set [4] is listed as 0.33. In data set [1] (D.P.A.-induced), the “a(X): blood-plaque aggregation inhibiting activity, D.P.A.” value was 63%. For the same compound, in data set [1], the “ratio of activities a(X)/a(R), D.P.A.” value was determined as 1.2; the “ratio … Adrenaline” value came to 1.1; the “ratio of activities a(X)/a(R), Collagene” value came to 2.2. Besides, in data set [1] (adrenaline-induced), the “a(X): blood-plaque aggregation inhibiting activity, Adrenaline” value is reported as 89%. The “a(X): blood-plaque aggregation inhibiting activity, Collagene” value in data set [1] (collagene-induced) amounted to 91%. Further, the LD50 at 168 h in data set [3] was above 1100 mg/kg. For the same compound, in data set [5], the “relative activity, ratio of ED 50 (papaverine hydrochloride = R)” value is listed as 1.69. For the same compound, the IC50 in data set [5] (setting [7]) came out at 3.1 µg/mL (≈ 11.3 µM).
With `O=C(CCN1CCOCC1)c1cc2ccccc2s1` [Compound 5], in data set [4] (setting [6]), the “a (X): percentage activity, P.P.Q.” value was found to be 54%. Besides, the “ratio of activity of X … P.P.Q.” value in data set [4] amounted to 0.76. In addition, in data set [1] (adrenaline-induced), the “a(X): blood-plaque aggregation inhibiting activity, Adrenaline” value stood at 44%. Moreover, in data set [1], the “ratio … Adrenaline” value is on record as 4.6 × 10^-1 and the “ratio of activities a(X)/a(R), Collagene” value worked out at 1.25. The “a(X): blood-plaque aggregation inhibiting activity, Collagene” value in data set [1] (collagene-induced) was determined as 45%. Besides, the LD50 at 168 h in data set [3] was above 1100 mg/kg.
For `OCCN(CCO)c1nc(N2CCCCC2)c2nc(N(CCO)CCO)nc(N3CCCCC3)c2n1` [Dipyridamole, reference compound], in data set [1] (D.P.A.-induced, reference 5 × 10^-4 g/ml, tested beside the compound of the same line), the “a(R): blood-plaque aggregation inhibiting activity of reference, D.P.A.” value is 72% and 53%. For the same compound, the “a(R): blood-plaque aggregation inhibiting activity of reference, Adrenaline” value in data set [1] (adrenaline-induced, reference 5 × 10^-4 g/ml, tested beside the compound of the same line) was 96% and 91% and 90% and 80%. The “a(R): blood-plaque aggregation inhibiting activity of reference, Collagene” value in data set [1] (collagene-induced, reference 2 × 10^-4 g/ml, tested beside the compound of the same line) is 36% and 42% and 67%. In data set [3] (po, reference product of the aggregation test, source of value not given), this compound showed an LD50 of 2150 mg/kg.
As to `O=C(OCC(O)CO)c1ccccc1Nc1ccnc2cc(Cl)ccc12` (stereo not shown) [Glafenine, ester of N-(7-chloro-4-quinolyl) anthrilic acid and 2,3-dihydroxy n. propanol, reference compound], in data set [4] (25 mg/kg orally, crises 10 to 15 minutes after P.P.Q., tested beside the compound of the same line), the “a (R): percentage activity of reference, P.P.Q.” value is 71% and 77% and 75%.
With `COc1ccc(Cc2nccc3cc(OC)c(OC)cc23)cc1OC` [papaverine hydrochloride, reference compound], the IC50 in data set [5] (read-out: ED 50 (R), spasmolytic activity of reference, barium chloride contraction, Tyrode solution, 38° C, tested beside the compound of the same line) amounted to 4.25 µg/mL.

The values are drawn from patent US4079140A, “Benzothienyl aminoethyl ketones and their application in therapeutics” (Innothera, priority 1975, dated 1978).
